In test [1] the test system is Streptococcus sp. 'group A'. Briefly: Streptococcus pyogenes SK(-)GAS viability under kanamycin – luminescence, BacTiterGlo, confirmation, counter-screen for streptokinase expression inhibitor project, dose response (AID 1900). It is filed as functional, organism-based. A general note: A counterscreen serves to expose hits that act by an unwanted route or on another target.

Test [2] addresses T1, Streptokinase A (Streptococcus pyogenes serotype M1, UniProt P10520).
T1 sequence (P10520 whole entry): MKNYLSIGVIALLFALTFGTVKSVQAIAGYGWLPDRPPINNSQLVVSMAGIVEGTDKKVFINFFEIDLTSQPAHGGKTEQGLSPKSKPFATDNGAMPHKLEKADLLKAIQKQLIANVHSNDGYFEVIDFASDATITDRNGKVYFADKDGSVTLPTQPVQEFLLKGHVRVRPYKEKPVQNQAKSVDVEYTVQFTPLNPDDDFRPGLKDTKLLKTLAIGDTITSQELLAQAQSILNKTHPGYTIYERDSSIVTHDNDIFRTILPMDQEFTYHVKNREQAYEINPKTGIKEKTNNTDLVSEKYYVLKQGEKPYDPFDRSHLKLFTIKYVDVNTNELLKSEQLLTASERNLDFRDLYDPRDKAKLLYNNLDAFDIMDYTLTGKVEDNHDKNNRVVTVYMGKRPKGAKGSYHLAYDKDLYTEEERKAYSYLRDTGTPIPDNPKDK
Briefly: viability-normalized secreted streptokinase activity reduction – plasminogen activation absorbance, OD405, dose response (AID 1914).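 Further: secreted streptokinase activity via plasminogen activation per viability signal from cell pellet.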 The test is classed as functional, Streptococcus pyogenes M1 GAS.

Test [3] can be described thus: Trypanosoma cruzi growth suppression in host cells – NIH3T3 host cells, beta-gal luminescence, confirmation (AID 2044).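 Further: intracellular parasites grown in NIH/3T3 mouse fibroblasts as host cells; luminescent beta-galactosidase reporter signal from transgenic T. cruzi replicating inside host cells; inhibitors lower the luminescence signal.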 It is filed as functional, cell-based.
The nature of test [4]: NIH3T3 cell viability loss – ATP luminescence, mouse fibroblasts, counter-screen, dose response (AID 2010).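 Further: cells exposed to compound for about 90 hours before reading.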 The test is classed as functional, cell-based.
The subject of test [5] is Streptococcus. Briefly: GAS UMAA2166 growth inhibition – luminescence, BacTiterGlo, counter-screen for streptokinase expression inhibitor project, dose response (AID 1915).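 Further: potency for reduction of bacterial viability or growth.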 It is filed as functional, organism-based.
The target in test [6] is T2, Exodeoxyribonuclease V (Escherichia coli (strain K12), UniProt P04993+P07648+P08394).
T2 sequence (P04993 whole entry): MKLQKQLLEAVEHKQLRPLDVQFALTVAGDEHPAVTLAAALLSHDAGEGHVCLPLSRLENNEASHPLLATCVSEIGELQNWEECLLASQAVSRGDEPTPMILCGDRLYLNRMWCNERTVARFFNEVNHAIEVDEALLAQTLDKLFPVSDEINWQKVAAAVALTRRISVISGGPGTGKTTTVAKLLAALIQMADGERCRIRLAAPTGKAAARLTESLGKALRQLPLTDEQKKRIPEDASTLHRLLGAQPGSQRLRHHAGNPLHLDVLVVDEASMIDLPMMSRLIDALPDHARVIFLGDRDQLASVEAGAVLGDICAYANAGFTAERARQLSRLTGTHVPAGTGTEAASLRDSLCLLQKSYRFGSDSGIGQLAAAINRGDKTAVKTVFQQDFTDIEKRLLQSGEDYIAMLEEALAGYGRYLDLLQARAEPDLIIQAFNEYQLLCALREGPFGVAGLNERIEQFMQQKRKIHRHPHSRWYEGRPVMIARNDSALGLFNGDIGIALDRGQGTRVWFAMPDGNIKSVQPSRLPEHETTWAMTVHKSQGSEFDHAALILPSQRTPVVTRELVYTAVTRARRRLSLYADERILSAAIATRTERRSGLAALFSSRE
T2 sequence (P07648 whole entry): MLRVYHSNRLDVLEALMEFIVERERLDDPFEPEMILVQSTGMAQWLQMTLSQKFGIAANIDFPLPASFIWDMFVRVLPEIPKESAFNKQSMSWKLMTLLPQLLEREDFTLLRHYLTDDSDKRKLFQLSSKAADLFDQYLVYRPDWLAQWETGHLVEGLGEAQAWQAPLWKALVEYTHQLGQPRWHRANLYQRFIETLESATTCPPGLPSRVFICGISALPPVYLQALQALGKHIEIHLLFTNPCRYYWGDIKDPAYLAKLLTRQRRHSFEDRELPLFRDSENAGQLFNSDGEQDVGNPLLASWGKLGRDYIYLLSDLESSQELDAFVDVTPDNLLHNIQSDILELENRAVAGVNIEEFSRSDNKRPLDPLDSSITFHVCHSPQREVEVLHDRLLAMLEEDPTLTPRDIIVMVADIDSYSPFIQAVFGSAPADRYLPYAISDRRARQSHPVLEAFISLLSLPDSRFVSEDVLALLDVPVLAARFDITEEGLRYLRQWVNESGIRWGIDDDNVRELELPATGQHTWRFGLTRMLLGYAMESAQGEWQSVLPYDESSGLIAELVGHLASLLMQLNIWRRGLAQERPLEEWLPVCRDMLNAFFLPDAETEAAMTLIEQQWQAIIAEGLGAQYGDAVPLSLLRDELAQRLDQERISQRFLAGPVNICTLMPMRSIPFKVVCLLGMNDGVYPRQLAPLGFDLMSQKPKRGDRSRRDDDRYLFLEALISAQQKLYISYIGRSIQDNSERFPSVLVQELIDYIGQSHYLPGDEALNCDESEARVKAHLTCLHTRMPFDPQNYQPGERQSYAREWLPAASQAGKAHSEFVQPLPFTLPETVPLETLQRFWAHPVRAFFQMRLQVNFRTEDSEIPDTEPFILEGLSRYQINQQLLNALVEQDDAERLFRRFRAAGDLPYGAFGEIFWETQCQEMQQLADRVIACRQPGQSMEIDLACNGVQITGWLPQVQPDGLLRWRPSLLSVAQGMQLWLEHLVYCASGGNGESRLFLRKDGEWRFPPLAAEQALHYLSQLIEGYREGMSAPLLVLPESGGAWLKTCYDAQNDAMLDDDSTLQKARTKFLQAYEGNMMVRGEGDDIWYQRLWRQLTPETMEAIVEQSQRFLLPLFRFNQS
T2 sequence (P08394 whole entry): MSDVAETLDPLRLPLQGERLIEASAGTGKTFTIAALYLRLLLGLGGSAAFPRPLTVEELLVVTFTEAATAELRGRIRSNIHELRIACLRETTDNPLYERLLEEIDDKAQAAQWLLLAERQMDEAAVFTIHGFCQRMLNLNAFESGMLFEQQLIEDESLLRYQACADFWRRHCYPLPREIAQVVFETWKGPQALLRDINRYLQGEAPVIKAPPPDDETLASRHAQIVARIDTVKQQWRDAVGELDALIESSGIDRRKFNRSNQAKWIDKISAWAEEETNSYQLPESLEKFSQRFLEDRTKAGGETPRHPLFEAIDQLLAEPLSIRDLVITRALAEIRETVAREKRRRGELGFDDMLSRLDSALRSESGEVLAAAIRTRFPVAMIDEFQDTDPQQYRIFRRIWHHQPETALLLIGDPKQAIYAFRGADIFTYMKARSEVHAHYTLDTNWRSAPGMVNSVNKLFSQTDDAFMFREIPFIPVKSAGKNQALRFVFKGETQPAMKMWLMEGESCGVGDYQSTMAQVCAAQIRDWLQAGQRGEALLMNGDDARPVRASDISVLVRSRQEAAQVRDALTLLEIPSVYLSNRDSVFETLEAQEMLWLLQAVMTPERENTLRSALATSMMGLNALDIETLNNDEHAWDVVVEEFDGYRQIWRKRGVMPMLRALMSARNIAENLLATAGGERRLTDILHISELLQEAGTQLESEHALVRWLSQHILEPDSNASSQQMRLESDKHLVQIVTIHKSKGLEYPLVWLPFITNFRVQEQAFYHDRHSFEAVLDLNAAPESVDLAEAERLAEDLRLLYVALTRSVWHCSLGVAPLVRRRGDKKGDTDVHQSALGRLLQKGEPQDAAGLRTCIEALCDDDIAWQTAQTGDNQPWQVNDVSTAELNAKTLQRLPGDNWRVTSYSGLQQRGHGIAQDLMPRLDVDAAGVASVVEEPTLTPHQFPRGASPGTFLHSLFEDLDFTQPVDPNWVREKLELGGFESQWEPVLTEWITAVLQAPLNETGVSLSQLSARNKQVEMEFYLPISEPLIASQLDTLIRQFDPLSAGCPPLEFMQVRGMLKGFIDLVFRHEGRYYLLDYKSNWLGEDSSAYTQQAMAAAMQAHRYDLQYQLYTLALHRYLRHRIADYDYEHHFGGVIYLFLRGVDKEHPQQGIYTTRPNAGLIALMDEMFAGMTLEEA
Description: RecBCD inhibition via phage-restricted bacterial growth – absorbance, V66 E. coli, mutant T4 phage, counter-screen for AddAB inhibitor project, dose response (AID 492957). The test is classed as functional, cell-based, Escherichia coli str. K-12 substr. MG1655.

Test [7] has as its target NACHT, LRR and PYD domains-containing protein 3 (Homo sapiens, UniProt Q96P20). Briefly: NALP3 inhibitors in yeast, dose response, luminescent (AID 488799). The test is classed as functional.
Test [8] in a line: Counterscreen for AddAB inhibitors: absorbance-based bacterial cell-based high throughput dose response assay for inhibitors of bacterial viability. [Related pubchem assays (depositor defined):AID435030, AID449728, AID449731, AID488942, AID488955, AID488956]. It is filed as functional.
The test system of test [9] is INS1. Briefly: INS-1E survival protection against cytokine death – cell-based, luminescence, retest, dose response (AID 449756).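 Further: cell death triggered by IL-1 beta plus TNF-alpha plus IFN-gamma mixture; protective hits raise ATP signal compared with cytokine alone wells.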 It is filed as functional. The settings on record: Rattus norvegicus.
In test [10] the target is T3, Neuropeptides B/W receptor type 1 (Homo sapiens, UniProt P48145).
T3 sequence (P48145 whole entry): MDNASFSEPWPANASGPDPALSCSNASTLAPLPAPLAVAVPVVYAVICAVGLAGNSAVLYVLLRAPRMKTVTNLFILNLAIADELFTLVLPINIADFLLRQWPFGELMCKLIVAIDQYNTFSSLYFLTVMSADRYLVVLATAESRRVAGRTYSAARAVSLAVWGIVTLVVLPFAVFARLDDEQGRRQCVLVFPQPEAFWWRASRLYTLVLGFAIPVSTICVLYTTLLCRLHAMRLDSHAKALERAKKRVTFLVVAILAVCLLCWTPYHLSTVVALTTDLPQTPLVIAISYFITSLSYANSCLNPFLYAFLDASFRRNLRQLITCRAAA
Description: human NPBW1 receptor blockade, IC50 – cell-based, fluorescence, dose response, late-stage follow-up (AID 463251). The test is classed as functional.

Active and inactive are the calls of the source.

What is called EC50 is the midpoint of the concentration-response curve. A word on the IC50: it is the concentration needed to halve the response being measured. In general, AC50 refers to the midpoint of the concentration-response curve, whichever way the signal moves.

NACHT, LRR and PYD domains-containing protein 3, sequence (Q96P20 whole entry, the tested form may be a part): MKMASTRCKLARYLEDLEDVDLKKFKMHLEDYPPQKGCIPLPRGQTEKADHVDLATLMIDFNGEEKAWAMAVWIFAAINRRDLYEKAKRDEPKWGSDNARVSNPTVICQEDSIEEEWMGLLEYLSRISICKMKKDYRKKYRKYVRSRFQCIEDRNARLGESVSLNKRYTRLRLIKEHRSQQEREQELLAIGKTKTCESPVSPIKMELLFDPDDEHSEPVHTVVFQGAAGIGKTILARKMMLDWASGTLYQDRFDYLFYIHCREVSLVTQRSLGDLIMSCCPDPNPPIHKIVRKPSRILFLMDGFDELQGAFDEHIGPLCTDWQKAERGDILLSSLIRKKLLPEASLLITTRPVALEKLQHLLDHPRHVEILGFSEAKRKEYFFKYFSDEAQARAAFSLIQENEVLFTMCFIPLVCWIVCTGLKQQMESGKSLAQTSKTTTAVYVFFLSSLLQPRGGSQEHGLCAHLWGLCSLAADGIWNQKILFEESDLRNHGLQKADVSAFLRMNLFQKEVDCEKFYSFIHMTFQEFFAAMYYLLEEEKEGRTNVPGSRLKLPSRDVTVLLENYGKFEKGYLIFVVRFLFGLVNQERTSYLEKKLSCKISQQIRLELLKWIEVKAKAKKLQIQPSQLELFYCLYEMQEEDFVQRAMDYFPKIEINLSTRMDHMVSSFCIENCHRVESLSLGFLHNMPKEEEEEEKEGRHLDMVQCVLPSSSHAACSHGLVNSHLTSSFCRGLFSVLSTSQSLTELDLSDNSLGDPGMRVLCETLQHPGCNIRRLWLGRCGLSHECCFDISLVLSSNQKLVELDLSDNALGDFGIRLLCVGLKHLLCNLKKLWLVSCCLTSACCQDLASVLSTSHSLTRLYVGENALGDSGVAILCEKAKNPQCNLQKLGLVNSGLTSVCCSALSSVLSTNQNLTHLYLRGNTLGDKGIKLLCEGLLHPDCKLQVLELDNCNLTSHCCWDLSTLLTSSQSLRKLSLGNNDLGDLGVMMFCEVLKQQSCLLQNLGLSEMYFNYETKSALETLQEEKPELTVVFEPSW

Take `N#Cc1ccc(NC(=O)Nc2ccc(Cl)cc2)cc1`: the 50% effective concentration (EC50) in test [1] is 31.4 µM (active); in test [2], > 150 µM (not active); in test [3], 2.67 µM (active); in test [4], 7.48 µM (active); in [5], > 150 µM (not active). The IC50 was > 119 µM (inactive) in test [6], 3.53 µM (active) in [7] and > 119 µM (inactive) in test [8]. Moreover, the AC50 in [9] was 4 µM (active).
On to `COc1ccc(Oc2c(C)cnn(-c3ccccc3)c2=O)cc1`, for which the IC50 in test [10] was > 20 µM (inactive).

(Values after ChEMBL document CHEMBL1201862, “PubChem BioAssay data set” (2004).)
